Assay results from PubChem BioAssay AID1963429 (Molecular Pharmacology Branch, DTP, NCI, 2024).
“And” between values parts separate entries of the source, which are not always exact repeats. Identical values can stand only once.

Test system: 126254-015-R-J1-PDC complex spheroid growth, % test/control
Test: Anticancer human tumor 126254-015-R-J1-PDC patient-derived soft tissue sarcoma cell line growth inhibition [Asc]
Details: for viability, T/C: stronger effect = lower value
Description: Multicellular complex tumor spheroid response to apoptosis pathway targeting inhibitors Alrizomadlin, Pelcitoclax, and Dasminapant in combination with a variety of drugs and investigational agents in selected tumor cell lines
The MDM2 inhibitor alrizomadlin, the Bcl-2/Bcl-xL inhibitor pelcitoclax, and the IAPs inhibitor dasminapant were evaluated both individually and in combination with standard of care and investigational anticancer small molecules within a complex spheroid model of solid tumors. . Complex spheroids include a stromal component modeled by human endothelial cells (HUVEC) and fibroblasts modeled by human mesenchymal stem cells (MSCs). The concentration ranges selected for each drug and investigational agent were based upon clinically achievable concentrations if the clinical Cmax of the agent was known.
Compounds. The drugs and investigational agents: alrizomadlin (APG-115; NSC831270), pelcitoclax (APG-1252; NSC835773), dasminapant (APG-1387;NSC834197), TAK-243 (NSC785004), copanlisib (NSC809693), olaparib (NSC753686), talazoparib (NSC767125), cobimetinib (NSC 768068), eltanexor (KPT-8602, NSC 794443), abemaciclib (NSC 768073), sotorasib (NSC818433), adagrasib (NSC 831453), MRTX-1133 (NSC 836407), Iadademestat (ORY1001, NSC 806812), and RMC-4630 (NSC839698), were obtained from the NCI Developmental Therapeutics Program Chemical Repository. The FDA-approved anticancer drug set is available from the Developmental Therapeutics Program at https://dtp.cancer.gov/organization/dscb/obtaining/available plates.htm. […] The stock solutions were prepared in dimethyl sulfoxide (DMSO, Sigma-Aldrich, St. Louis, MO, cat. D2650) at 800-fold the tested concentration and stored at -70 degrees C prior to their use. All drugs and investigational agents were tested over a range starting from a high concentration at or near the clinical Cmax and decreasing in half-log increments. If the clinical Cmax for an agent had not been determined, the highest concentration tested was 10 microM.
The patient-derived cancer (PDC) cell lines include five colon adenocarcinomas: 186277-243-T-J2-PDC, 616215-338-R-J1-PDC, 439559-082-T-J2-PDC, 463943-066-T-J2-PDC, and 519858-162-T-J1-PDC; three pancreatic carcinomas: 323965-272-R-J2-PDC, 521955-158-R6-J3-PDC, and 521955-158-R2-J5-PDC; two uterine sarcomas: 327498-152-R-J2-PDC and 993429-296-R-J1-PDC; two rhabdomyosarcomas: 755483-174-R-J1-PDC and 772245-204-R-J1-PDC; two soft tissue sarcomas: 126254-015-R-J1-PDC and 494315-158-R-J1-PDC; two malignant fibrous histiocytomas: 317291-083-R-J1-PDC and 596521-263-R-J1-PDC; two breast carcinomas: 171881-019-R-J1-PDC and 885512-296-R-J2-PDC; and one ovarian carcinoma: 6556581-035-R-J-PDC were obtained from the NCI PDMR, (https://pdmr.cancer.gov). The established cell lines HSSY-2 synovial sarcoma (RRID:CVCL 8719), SYO-1 synovial sarcoma (RRID:CVCL_7146), MPNST malignant peripheral neural sheath tumor were obtained from the Sloan Kettering Institute. The following established cell lines were purchased from the American Type Culture Collection (ATCC, Manassas, VA), Sor the received from the NCI repository:, PANC-1 pancreatic carcinoma (CRL-1469, RRID:CVCL_0480), OVCAR-5 ovarian carcinoma (RRID:CVCL_1628), OVCAR-8 ovarian carcinoma (RRID:CVCL_1629), , MCF-7 breast carcinoma (CRL-12584, RRID:CVCL_0031), MDA-MB-231 breast carcinoma (CRL-12532, RRID:CVCL_0062), NCI-H1876 small cell lung carcinoma (CRL-5902, RRID:CVCL_1503), NCI-H510A small cell lung carcinoma (HTB-184, RRID:CVCL_1565), NCI-H1417 (CRL-5869, RRID:CVCL_1469), and NCI-H196 small cell lung carcinoma (CRL-5823, RRID:CVCL_1509). Dr. Peter Houghton (Greehey Children's Cancer Research Institute, University of Texas Health Science Center, San Antonio, TX) provided Rh-18 rhabdomyosarcoma (RRID:CVCL_1659). Pooled donor human umbilical vein endothelial cells (HUVEC, Lonza, cat. CC-2519) and human mesenchymal stem cells (hMSC, Lonza, cat. PT-2501) were purchased from Lonza (Walkersville, MD).
Cell Culture. […]
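Further: spheroids exposed to compound for seven days.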
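Wherever viability, T/C is given: 100% = DMSO vehicle control wells.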

## C#Cc1c(F)ccc2cc(O)cc(-c3ncc4c(N5CC6CCC(C5)N6)nc(OCC56CCCN5CC(F)C6)nc4c3F)c12 (stereo unspecified) + Cc1c(S(C)(=O)=O)c(-c2cc(F)cc(N3CCN(c4ccc(NS(=O)(=O)c5ccc(NC(CCN6CCC(C(=O)OCCCP(=O)(O)O)CC6)CSc6ccccc6)c(S(=O)(=O)C(F)(F)F)c5)cc4)CC3)c2)c(-c2ccc(Cl)cc2)n1C(C)C
Curve of first compound, second compound 0.1 µM
  IC50: > 10 µM
Curve of first compound, second compound 0.316 µM
  IC50: > 10 µM
Curve of first compound, second compound 1 µM
  IC50: 6.58 µM
Curve of first compound, second compound 3.16 µM
  IC50: 7.17 µM
Curve of first compound, second compound 10 µM
  IC50: 9.19 µM
Second compound 0.1 µM, first compound 0.0316 µM
  viability, T/C: 85.4%
Second compound 0.1 µM, first compound 0.1 µM
  viability, T/C: 92.8%
Second compound 0.1 µM, first compound 0.316 µM
  viability, T/C: 90.4%
Second compound 0.1 µM, first compound 1 µM
  viability, T/C: 80.9%
Second compound 0.1 µM, first compound 3.16 µM
  viability, T/C: 72.4%
Second compound 0.1 µM, first compound 10 µM
  viability, T/C: 59.9%
Second compound 0.316 µM, first compound 0.0316 µM
  viability, T/C: 88.5%
Second compound 0.316 µM, first compound 0.1 µM
  viability, T/C: 86%
Second compound 0.316 µM, first compound 0.316 µM
  viability, T/C: 80.9%
Second compound 0.316 µM, first compound 1 µM
  viability, T/C: 79.2%
Second compound 0.316 µM, first compound 3.16 µM
  viability, T/C: 72.4%
Second compound 0.316 µM, first compound 10 µM
  viability, T/C: 54.5%
Second compound 1 µM, first compound 0.0316 µM
  viability, T/C: 84%
Second compound 1 µM, first compound 0.1 µM
  viability, T/C: 92.2%
Second compound 1 µM, first compound 0.316 µM
  viability, T/C: 73.8%
Second compound 1 µM, first compound 1 µM
  viability, T/C: 81.9%
Second compound 1 µM, first compound 3.16 µM
  viability, T/C: 72.3%
Second compound 1 µM, first compound 10 µM
  viability, T/C: 37.4%
Second compound 3.16 µM, first compound 0.0316 µM
  viability, T/C: 82.6%
Second compound 3.16 µM, first compound 0.1 µM
  viability, T/C: 90.8%
Second compound 3.16 µM, first compound 0.316 µM
  viability, T/C: 83.4%
Second compound 3.16 µM, first compound 1 µM
  viability, T/C: 79.5%
Second compound 3.16 µM, first compound 3.16 µM
  viability, T/C: 65.8%
Second compound 3.16 µM, first compound 10 µM
  viability, T/C: 43.6%
Second compound 10 µM, first compound 0.0316 µM
  viability, T/C: 87.1%
Second compound 10 µM, first compound 0.1 µM
  viability, T/C: 88.4%
Second compound 10 µM, first compound 0.316 µM
  viability, T/C: 81.2%
Second compound 10 µM, first compound 1 µM
  viability, T/C: 75.5%
Second compound 10 µM, first compound 3.16 µM
  viability, T/C: 75%
Second compound 10 µM, first compound 10 µM
  viability, T/C: 47.8%

## CNC(C)C(=O)NC1CN(S(=O)(=O)c2cccc(S(=O)(=O)N3CCC4CCC(C(=O)NC(c5ccccc5)c5ccccc5)N4C(=O)C(NC(=O)C(C)NC)C3)c2)CCC2CCC(C(=O)NC(c3ccccc3)c3ccccc3)N2C1=O (stereo unspecified) + CCN1C(C(=O)NC23CCC(C(=O)O)(CC2)CC3)C(c2cccc(Cl)c2F)C2(C(=O)Nc3cc(Cl)ccc32)C12CCCCC2
Curve of first compound, second compound 0.03 µM
  IC50: > 1 µM
Curve of first compound, second compound 0.0949 µM
  IC50: > 1 µM
Curve of first compound, second compound 0.3 µM
  IC50: > 1 µM
Curve of first compound, second compound 0.949 µM
  IC50: > 1 µM
Curve of first compound, second compound 3 µM
  IC50: > 1 µM
Second compound 0.03 µM, first compound 0.00316 µM
  viability, T/C: 108%
Second compound 0.03 µM, first compound 0.01 µM
  viability, T/C: 94.3%
Second compound 0.03 µM, first compound 0.0316 µM
  viability, T/C: 76.7%
Second compound 0.03 µM, first compound 0.1 µM
  viability, T/C: 61.4%
Second compound 0.03 µM, first compound 0.316 µM
  viability, T/C: 50.6%
Second compound 0.03 µM, first compound 1 µM
  viability, T/C: 56.6%
Second compound 0.0949 µM, first compound 0.00316 µM
  viability, T/C: 104%
Second compound 0.0949 µM, first compound 0.01 µM
  viability, T/C: 106%
Second compound 0.0949 µM, first compound 0.0316 µM
  viability, T/C: 78.5%
Second compound 0.0949 µM, first compound 0.1 µM
  viability, T/C: 67.2%
Second compound 0.0949 µM, first compound 0.316 µM
  viability, T/C: 52.6%
Second compound 0.0949 µM, first compound 1 µM
  viability, T/C: 57.6%
Second compound 0.3 µM, first compound 0.00316 µM
  viability, T/C: 96%
Second compound 0.3 µM, first compound 0.01 µM
  viability, T/C: 92.9%
Second compound 0.3 µM, first compound 0.0316 µM
  viability, T/C: 96.4%
Second compound 0.3 µM, first compound 0.1 µM
  viability, T/C: 65.3%
Second compound 0.3 µM, first compound 0.316 µM
  viability, T/C: 62%
Second compound 0.3 µM, first compound 1 µM
  viability, T/C: 55.8%
Second compound 0.949 µM, first compound 0.00316 µM
  viability, T/C: 103%
Second compound 0.949 µM, first compound 0.01 µM
  viability, T/C: 90.4%
Second compound 0.949 µM, first compound 0.0316 µM
  viability, T/C: 79.6%
Second compound 0.949 µM, first compound 0.1 µM
  viability, T/C: 66%
Second compound 0.949 µM, first compound 0.316 µM
  viability, T/C: 58%
Second compound 0.949 µM, first compound 1 µM
  viability, T/C: 55.7%
Second compound 3 µM, first compound 0.00316 µM
  viability, T/C: 85.7%
Second compound 3 µM, first compound 0.01 µM
  viability, T/C: 80.8%
Second compound 3 µM, first compound 0.0316 µM
  viability, T/C: 84.6%
Second compound 3 µM, first compound 0.1 µM
  viability, T/C: 65.3%
Second compound 3 µM, first compound 0.316 µM
  viability, T/C: 53.9%
Second compound 3 µM, first compound 1 µM
  viability, T/C: 59.2%

## NC1CCC(NC2CC2c2ccccc2)CC1 (stereo unspecified)
Compound 0.000316 µM
  viability, T/C: 96.7% and 95.9% and 95.3%
Compound 0.001 µM
  viability, T/C: 87.1% and 102% and 107%
Compound 0.00316 µM
  viability, T/C: 96.5% and 88.6% and 98%
Compound 0.01 µM
  viability, T/C: 92.1% and 90.5% and 103%
Compound 0.0316 µM
  viability, T/C: 90.3% and 85.1% and 100%
Compound 0.1 µM
  viability, T/C: 84.9% and 93% and 96.2%
Curve of compound
  IC50: > 0.1 µM

## O=C(c1cc(Cc2n[nH]c(=O)c3ccccc23)ccc1F)N1CCN(C(=O)C2CC2)CC1
Compound 0.0316 µM
  viability, T/C: 95.9% and 107% and 96.9%
Compound 0.1 µM
  viability, T/C: 93.1% and 96.8% and 103%
Compound 0.316 µM
  viability, T/C: 88.4% and 102% (2×)
Compound 1 µM
  viability, T/C: 86.6% and 93.3% and 97.7%
Compound 3.16 µM
  viability, T/C: 79.3% and 83.1% and 87.7%
Compound 10 µM
  viability, T/C: 64.2% and 68.1% and 68.5%
Curve of compound
  IC50: > 10 µM

## C#Cc1c(F)ccc2cc(O)cc(-c3ncc4c(N5CC6CCC(C5)N6)nc(OCC56CCCN5CC(F)C6)nc4c3F)c12 (stereo unspecified)
Compound 0.0316 µM
  viability, T/C: 97.4% and 92.6% and 97.8%
Compound 0.1 µM
  viability, T/C: 92.8% and 89.8% and 108%
Compound 0.316 µM
  viability, T/C: 100% and 97.5% and 103%
Compound 1 µM
  viability, T/C: 94.1% and 97.4% and 93.6%
Compound 3.16 µM
  viability, T/C: 101% and 95% and 92.8%
Compound 10 µM
  viability, T/C: 82.5% and 76.4% and 72.9%
Curve of compound
  IC50: > 10 µM
